Assay results: PubChem BioAssay AID1845197 (Molecular Pharmacology Branch, DTP, NCI, 2023)

Tested on: 349418-098-R tumor spheroid viability
Experiment: Anticancer human tumor 349418-098-R patient-derived lung adenocarcinoma cell line growth inhibition
Settings: spheroids with HUVEC and MSC; for IC50: curve of first compound; for viability, T/C: stronger effect = lower value
In short: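 Complex spheroids of malignant cells with endothelial cells and mesenchymal stem cells; agents alone or combined, from near clinical Cmax (or 10 microM if unknown) down in half-log steps, 0.25% DMSO final.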
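Further: spheroids exposed to compound for 7 days before measurement.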
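Wherever viability, T/C is given: percent of vehicle control viability with 100% = DMSO-treated spheroids.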

O=C(c1cc(Cc2n[nH]c(=O)c3ccccc23)ccc1F)N1CCN(C(=O)C2CC2)CC1 + CC[C@@]1(O)C(=O)OCc2c1cc1n(c2=O)Cc2cc3c(CN(C)C)c(O)ccc3nc2-1
IC50 (second compound 0.003 µM): 27.4 µM
IC50 (second compound 0.00949 µM): 23.4 µM
IC50 (second compound 0.03 µM): 4.08 µM
IC50 (second compound 0.0949 µM): < 0.0949 µM
IC50 (second compound 0.3 µM): < 0.0949 µM
viability, T/C (second compound 0.003 µM, first compound 0.0949 µM): 102%
viability, T/C (second compound 0.003 µM, first compound 0.3 µM): 96.3%
viability, T/C (second compound 0.003 µM, first compound 0.949 µM): 98%
viability, T/C (second compound 0.003 µM, first compound 3 µM): 97.6%
viability, T/C (second compound 0.003 µM, first compound 9.49 µM): 76%
viability, T/C (second compound 0.003 µM, first compound 30 µM): 47.8%
viability, T/C (second compound 0.00949 µM, first compound 0.0949 µM): 99.2%
viability, T/C (second compound 0.00949 µM, first compound 0.3 µM): 101%
viability, T/C (second compound 0.00949 µM, first compound 0.949 µM): 97.8%
viability, T/C (second compound 0.00949 µM, first compound 3 µM): 94.3%
viability, T/C (second compound 0.00949 µM, first compound 9.49 µM): 72.6%
viability, T/C (second compound 0.00949 µM, first compound 30 µM): 43.8%
viability, T/C (second compound 0.03 µM, first compound 0.0949 µM): 67.3%
viability, T/C (second compound 0.03 µM, first compound 0.3 µM): 72.8%
viability, T/C (second compound 0.03 µM, first compound 0.949 µM): 61.5%
viability, T/C (second compound 0.03 µM, first compound 3 µM): 58.8%
viability, T/C (second compound 0.03 µM, first compound 9.49 µM): 29.8%
viability, T/C (second compound 0.03 µM, first compound 30 µM): 12.8%
viability, T/C (second compound 0.0949 µM, first compound 0.0949 µM): 19.8%
viability, T/C (second compound 0.0949 µM, first compound 0.3 µM): 21.7%
viability, T/C (second compound 0.0949 µM, first compound 0.949 µM): 20.8%
viability, T/C (second compound 0.0949 µM, first compound 3 µM): 18%
viability, T/C (second compound 0.0949 µM, first compound 9.49 µM): 12%
viability, T/C (second compound 0.0949 µM, first compound 30 µM): 7.08%
viability, T/C (second compound 0.3 µM, first compound 0.0949 µM): 3.58%
viability, T/C (second compound 0.3 µM, first compound 0.3 µM): 3.79%
viability, T/C (second compound 0.3 µM, first compound 0.949 µM): 4.35%
viability, T/C (second compound 0.3 µM, first compound 3 µM): 4.53%
viability, T/C (second compound 0.3 µM, first compound 9.49 µM): 3.36%
viability, T/C (second compound 0.3 µM, first compound 30 µM): 3.46%
